The source of these data is US7741506B2, “Probe for measuring phytase activity” (Berry & Associates, Inc., priority 2005, dated 2010).

SMILES strings stand for the structures.

The subject of one data set is A. ficuum 3-phytase. Nature of the data set: 3-phytase assay with HPLC analysis. The data set is classed as biochemical. As to the method: (§1) Referring now to FIGS. 2 through 5, the aforesaid exemplary probe according to the instant invention (compound 2 of FIG. 1) was employed in assays of 3-phytase and 6-phytase activity. The 3-phytase assay consisted of a solution combining A. ficuum 3-phytase (0.27 U) and the penta-ammonium salt of compound 2 (1.2 mM in glycine-HCl buffer 0.2M, pH 2.6, 3 mL). The 3-phytase assay was carried out at 37° C. The 6-phytase assay consisted of a solution combining wheat 6-phytase (0.27 U) and compound 2 (1.2 mM in sodium acetate buffer, 0.2M, pH 5.2, 3 mL). The 6-phytase assay was carried out at 50° C.
(§2) Control assays were similarly prepared but lacked the phytase enzyme. Assays were carried out in tinted vials, capped with septa and stirred continuously. Aliquot samples (30 μL) were taken and diluted with methanol-water (58:42, 970 μL) for HPLC analysis over the 24-hour time course of the assay.
(§3) Mobile phase (pH 4.0) was prepared by mixing methanol (580 mL), water (420 mL), tetrabutylammonium hydroxide (8 mL), 5N aqueous sulfuric acid (0.5 mL), and 6.4 mM aqueous phytic acid (0.2 mL). HPLC analysis was performed on an analytical HPLC system using a reversed phase column (Hamilton PRP-1, 5 μm, 150×4.6 mm). Compounds were quantified by the external standards method.

For the next data set, the system named is wheat 6-phytase. In words: 6-phytase assay with HPLC analysis. The data set is classed as biochemical. To be noted: 0.27 U enzyme, 1.2 mM substrate, sodium acetate buffer 0.2M, pH 5.2, 50° C. As for the experimental part: as §1, §2, §3

For the compound `O=C(NCCCCCCOC1[C@@H](OP(=O)(O)O)[C@H](OP(=O)(O)O)C(OP(=O)(O)O)[C@H](OP(=O)(O)O)[C@H]1OP(=O)(O)O)c1ccccc1` (stereo partly drawn) [compound 2, 5-O-[6-(benzoylamino)hexyl]-D-myo-inositol-1,2,3,4,6-pentakisphosphate], the “rate limiting step of the production of compound 7 from compound 2” value with A. ficuum 3-phytase (3-phytase, accumulation of the triphosphate, no significant diphosphate peak) is recorded as “conversion of triphosphate to diphosphate”. In addition, in the data set with A. ficuum 3-phytase (after 24 hours of incubation, 0.27 U enzyme, 1.2 mM substrate, glycine-HCl buffer 0.2M, pH 2.6, 37° C., HPLC), the “conversion of compound 2 to compound 7 (complete dephosphorylation) in the presence of 3-phytase” value was “completely converted”. In addition, the “conversion in the enzyme free control” value in the data set on A. ficuum 3-phytase (control lacking the phytase enzyme, 24 hours, glycine-HCl buffer pH 2.6, 37° C., HPLC) is reported as “no conversion”. In addition, in the data set with A. ficuum 3-phytase (in the assay and in the control), the “amide bond cleavage separating the UV chromophore from the phytic acid core (benzoic acid by HPLC)” value was “no benzoic acid could be detected”. Further, the “substrate for 6-phytase (sequential dephosphorylation, HPLC)” value in the data set with wheat 6-phytase is reported as “serves equally well as a substrate”.
